Source: patent publication US5223526A, “Pyrazole carboxanilide fungicides and use” (Monsanto Company, priority 1992, dated 1993)

Legend:
[1] = tested on: Botrytis cinerea; assay: Eggplant grey mold; assay type: in vivo; parameters: scale not given here; conditions: inoculated 24 h later, rated after 3-4 days; for Disease Control Rating at 20 ppm: eggplant sprayed with 20 ppm; for Disease Control Rating at 100 ppm: eggplant sprayed with 100 ppm; for Disease Control Rating at 500 ppm: eggplant sprayed with 500 ppm
Experimental: Eggplant seed are planted in 2.25" square pots, six per pot, and maintained in growth chambers set at 23° C., 80% humidity, and 12 h photoperiod. When the plants are at the cotyledon stage (14-18 days afterplanting), the plants are sprayed with 1.5 mL/pot of 500, 100 or 20 ppm 2:3 acetone:water (with 0.5% Tween® 20) formulations of the test compounds.
Twenty-four hours later the plants are inoculated with Botrytis cinerea, approximately 0.5 mL/pot of a 4×10^6 spore/mL suspension. The plantes are incubated at 23° C. and 100% humidity for 3-4 days, at which time disease control ratings are made based on presence and severity of Botrytis lesions.

[2] = tested on: Rhizoctonia solani; assay: Rice sheath blight; assay type: in vivo; parameters: scale not given here; conditions: inoculated two days later, rated after 7 days, average of five plants; for Disease Control Rating at 0.5 mg/mL: foliage and soil sprayed with 0.5 mg/mL; for Disease Control Rating at 0.02 mg/mL: foliage and soil sprayed with 0.02 mg/mL; for Disease Control Rating at 0.1 mg/mL: foliage and soil sprayed with 0.1 mg/mL
Experimental: Rice plants, 11 to 15 days old, are grown in 7.65 cm^2 pots. Each plant in the treatment groups is treated by spraying both the foliage and the soil surface, each with 2 mL of a water/acetone/Tween®20 formulation containing 0.5, 0.1, or 0.02 mg/mL of Compound A. The pots are placed in flood trays which are filled with water to just below the soil line. Two days later, approximately two grams of Rhizoctonia solani inoculum, cultured on rice grain for four to eight weeks, is applied to the base of the rice plants in each pot. After 7 days in a 25° C. high humidity growth chamber, each plant is evaluated for the level of disease contro as compared to untreated controls by the following scale and the average of five plants per treatment level is calculated.

[3] = molecular target: T1, succinate dehydrogenase (Botrytis cinerea, UniProt A0A384J5E4+A0A384J8V8+A0A384JHJ5); assay: Enzyme inhibition: succinate dehydrogenase activity in Botrytis cinerea mitochondria (DCPIP reduction); assay type: biochemical; conditions: concentration required to inhibit the rate of DCPIP reduction by 50%; Botrytis cinerea isolate Nick mitochondria; read-out: I50 (μM conc.)
T1 construct: succinate-DCPIP reductase assay with KCN
T1 sequence (A0A384J5E4 1-300): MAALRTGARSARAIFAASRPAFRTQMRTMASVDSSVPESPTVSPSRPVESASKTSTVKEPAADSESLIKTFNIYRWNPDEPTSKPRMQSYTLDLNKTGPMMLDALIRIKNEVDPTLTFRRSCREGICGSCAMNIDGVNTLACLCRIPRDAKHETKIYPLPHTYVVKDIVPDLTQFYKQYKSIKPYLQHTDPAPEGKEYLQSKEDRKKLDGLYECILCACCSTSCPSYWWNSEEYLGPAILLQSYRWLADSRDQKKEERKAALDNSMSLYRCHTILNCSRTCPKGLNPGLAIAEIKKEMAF
T1 sequence (A0A384J8V8 1-189): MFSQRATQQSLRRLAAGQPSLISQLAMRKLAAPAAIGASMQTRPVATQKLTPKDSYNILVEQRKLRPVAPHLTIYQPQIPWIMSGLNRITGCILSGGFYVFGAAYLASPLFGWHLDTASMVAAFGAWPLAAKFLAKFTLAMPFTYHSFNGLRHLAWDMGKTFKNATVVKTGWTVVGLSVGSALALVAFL
T1 sequence (A0A384JHJ5 1-192): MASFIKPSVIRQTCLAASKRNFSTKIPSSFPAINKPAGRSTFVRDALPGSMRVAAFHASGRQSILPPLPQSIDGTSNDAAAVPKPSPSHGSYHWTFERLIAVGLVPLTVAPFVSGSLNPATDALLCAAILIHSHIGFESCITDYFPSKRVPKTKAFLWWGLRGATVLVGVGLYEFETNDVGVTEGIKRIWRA
T1 sequence (A0A384K456 1-647 partner): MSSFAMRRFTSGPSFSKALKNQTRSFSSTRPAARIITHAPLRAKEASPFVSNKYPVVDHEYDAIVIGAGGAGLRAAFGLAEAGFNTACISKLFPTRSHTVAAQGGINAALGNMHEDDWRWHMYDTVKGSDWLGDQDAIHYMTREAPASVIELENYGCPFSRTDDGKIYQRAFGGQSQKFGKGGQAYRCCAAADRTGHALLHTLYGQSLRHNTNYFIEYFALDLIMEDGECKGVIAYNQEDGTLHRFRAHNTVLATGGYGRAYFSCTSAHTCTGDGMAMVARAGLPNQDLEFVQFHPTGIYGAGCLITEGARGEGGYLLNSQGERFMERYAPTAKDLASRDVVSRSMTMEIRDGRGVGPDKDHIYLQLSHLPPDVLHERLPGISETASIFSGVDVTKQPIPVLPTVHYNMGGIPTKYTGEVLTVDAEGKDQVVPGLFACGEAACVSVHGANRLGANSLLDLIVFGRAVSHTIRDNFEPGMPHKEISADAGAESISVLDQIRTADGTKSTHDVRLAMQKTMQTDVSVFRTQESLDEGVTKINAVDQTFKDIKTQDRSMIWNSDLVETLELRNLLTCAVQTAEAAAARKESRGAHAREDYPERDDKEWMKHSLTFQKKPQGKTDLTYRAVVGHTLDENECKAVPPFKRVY
Experimental: Mitochondria were isolated by a method adapted from G.A. White [Biochem. Biophys. Res. Commun. 44: 1212, 1971]. Twenty to thirty grams of Botrytis cinerea isolate Nick were resuspended in 250 mL 0.25M sucrose, 5mM Na4 EDTA, pH 7.0 (+) 0.15% (w/v) bovine serum albumin (BSA) and placed in a Bead Beater chamber (Biospec Products, Bartlesville, Ok.). Zirconium oxide beads (0.5mm) were added to finish filling the chamber. Four 30 second beats separated by 2 minute temperature equilibration periods in the cold were used to break the mycelia. A crude mitochondrial preparation was harvested from the homogenate by differential centrifugation at 4° C. and resuspended in BSA-free sucrose/EDTA media and used for SDH assays.
The succinate dehydrogenase activity was measured at 600 nm in 50 mM potassium phosphate, pH 7.2, 1 mM KCN, 45 μM 2,6-dichlorophenolindophenol (DCPIP) and 17 mM disodium succinate (final volume, 1 mL) with a Perkin-Elmer Lambda 7 ultraviolet-visible spectrophotometer. The test compounds were added as acetone solutions (final concentration of acetone, 1% (v/v)). The mitochondrial preparatons were used to initiate the reaction. All rates were corrected for endogenous activities minus succinate. Semilog plots of percentage inhibition versus test compound concentration were used to determine inhibition expressed as I50 (μM) which is the concentration required to inhibit the rate of DCPIP reduction by 50%. The commercial fungicide carboxin was used as standard throughout.

[4] = tested on: Botrytis cinerea; assay: Vine grey mold (grape berries); assay type: in vivo; conditions: average of six berries, 7-10 days; for pest or weed control at 50 ppm: grape berries treated with 50 ppm, read-out: % DISEASE CONTROL 50 ppm; for pest or weed control at 200 ppm: grape berries treated with 200 ppm, read-out: % DISEASE CONTROL 200 ppm
Experimental: Grape berries, which have been washed and surfaced sterilized in 70% ethanol for one minute, are, except for the negative controls, treated with 0.2 mL of a 2:3 acetone/water formulation (containing 0.05% Tween® 20) of 200 or 50 ppm of the test compounds and placed one per well in 12-well plates. Six berries per treatment level are used. Twenty-four hours later each berry is inoculated with Botrytis cinerea conidia, 0.2 mL of 10^6 spores/mL suspension. The plates are incubated at 20° C. with a 12 hours photoperiod for 7-10 days and the percent surface area infected with the disease is determined for each replicate using the values of 0, 1, 2, 5, 7, 10, 15, 20, 25, 30, 35, 40, 45, 50, 55, 60, 65, 70, 75, 80, 85, 90, 95, and 100%. Treatment means are calculated and percent disease control is determined by the formula [(control mean - treatment mean)/control means]×100.
Some of the compounds have been tested more than once and the results shown are the average of the number of tests reported.

SMILES | Disease Control Rating at 20 ppm [1] | Disease Control Rating at 100 ppm [1] | Disease Control Rating at 500 ppm [1] | Disease Control Rating at 0.5 mg/mL [2] | IC50 [3] [µM] | pest or weed control at 50 ppm [4] [%] | pest or weed control at 200 ppm [4] [%] | Disease Control Rating at 0.02 mg/mL [2] | Disease Control Rating at 0.1 mg/mL [2]
Cn1cc(C(=O)Nc2ccccc2[C@@H]2C[C@H]3CC[C@@H]2C3)c(C(F)F)n1 (relative stereo) [Example 26, 1H-pyrazole-4-carboxamide, N-(2-bicyclo[2.2.1]hept-2-ylphenyl)-3-(difluoromethyl)-1-methyl-, exo-] | 1 | 2 | 1 | 1 | 0.0017 | 97 | 100 |  | 
Cn1cc(C(=O)Nc2ccccc2[C@@H]2C[C@H]3CC[C@@H]2C3)c(C(F)(F)F)n1 (relative stereo) [Example 27, 1H-pyrazole-4-carboxamide, N-(2-bicyclo[2.2.1]hept-2-ylphenyl)-1-methyl-3-(trifluoromethyl)-, exo-] | 0 | 1 | 2 | 0 | 0.0048 | 80 | 74 |  | 
Cn1cc(C(=O)Nc2ccccc2[C@@H]2C[C@H]3CC[C@@H]2C3)c(Cl)n1 (relative stereo) [Example 52, 1H-pyrazole-4-carboxamide, N-(2-bicyclo[2.2.1]hept-2-ylphenyl)-3-chloro-1-methyl-, exo-] |  |  | 0 | 2 | 0.049 | 19 | 30 | 0 | 2
Cn1cc(C(=O)Nc2ccccc2[C@@H]2C[C@H]3CC[C@@H]2C3)c(I)n1 (relative stereo) [Example 58, 1H-pyrazole-4-carboxamide, N-(2-bicyclo[2.2.1]hept-2-ylphenyl)-3-iodo-1-methyl-, exo-] | 0 | 0 | 2 | 2 | 0.0086 | 51 | 78 |  | 
Cn1cc(C(=O)Nc2ccccc2[C@@H]2C[C@H]3CC[C@@H]2C3)c(Br)n1 (relative stereo) [Example 65, 1H-pyrazole-4-carboxamide, N-(2-bicyclo[2.2.1]hept-2-ylphenyl)-3-bromo-1-methyl-, exo-] | 0 | 1 | 2 | 3 | 0.011 | 47 | 85 | 2 | 3
C[C@H]1CCC[C@H](c2ccccc2NC(=O)c2cn(C)nc2C(F)(F)F)C1 (relative stereo) [Example 70, 1H-pyrazole-4-carboxamide, 1-methyl-N-[2-(3-methylcyclohexyl)-phenyl]-3-(trifluoromethyl)-, trans-] | 1 | 2 | 3 | 0 | 0.012 | 97 | 96 |  | 
Cc1nn(C)cc1C(=O)Nc1ccccc1[C@@H]1C[C@H]2CC[C@@H]1C2 (relative stereo) [Example 71, 1H-pyrazole-4-carboxamide, N-(2-bicyclo[2.2.1]hept-2-ylphenyl)-1,3-dimethyl-, exo-] |  |  | 0 | 3 | 0.046 | 25 | 57 | 1 | 3
C[C@@H]1CCC[C@@H](C)C1Oc1ccccc1NC(=O)c1cn(C)nc1C(F)(F)F (relative stereo) [Example 75, 1H-pyrazole-4-carboxamide, 1-methyl-N-[2-[(2,6-dimethylcyclohexyl)oxy]phenyl]-3-(trifluoromethyl)-, (1alpha,2alpha,6beta)-] |  |  | 0 | 0 | 0.013 | 6 | 0 |  | 
C[C@@H]1CCC[C@H](c2ccccc2NC(=O)c2cn(C)nc2C(F)(F)F)C1 (relative stereo) [Example 79, 1H-pyrazole-4-carboxamide, 1-methyl-N-[2-(3-methylcyclohexyl)phenyl]-3-(trifluoromethyl)-, cis-] | 0 | 1 | 2 | 3 | 0.011 | 69 | 97 | 3 | 3
Cn1cc(C(=O)Nc2ccccc2O[C@@H]2C[C@H]3CC[C@@H]2C3)c(C(F)F)n1 (relative stereo) [Example 80, 1H-pyrazole-4-carboxamide, N-[2-(bicyclo[2.2.1]hept-2-yloxy)-phenyl]-3-(difluoromethyl)-1-methyl-, exo-] |  |  | 0 | 3 | 0.083 | 0 | 0 | 2 | 3
Cn1cc(C(=O)Nc2cc(Br)cc(Br)c2C2CCCCC2)c(C(F)(F)F)n1 [Example 136, 1H-pyrazole-4-carboxamide, N-(3,5-dibromo-2-cyclohexylphenyl)-1-methyl-3-(trifluoromethyl)-] | 0 | 0 | 1 | 0 |  | 7 | 0 |  | 
